The text below walks through data of PubChem BioAssay (NCI).

Some test systems named below: LOX IMVI melanoma; NCI-H23 lung; OVCAR-8 ovarian; SF-295 CNS; OVCAR-5 ovarian; IGROV1 ovarian; SF-539 CNS; SW-620 colon; RXF 393 renal; HL-60(TB) leukemia; SNB-75 CNS; OVCAR-4 ovarian; HS 578T breast; M14 melanoma; CCRF-CEM leukemia; U251 CNS; NCI-H226 lung; SR leukemia; HCC-2998 colon.
What all share (test): NCI anticancer screen, dose series, 48 h

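How tested: cells in 96-well plates exposed to compound for 48 hours at five concentrations. At the TGI there is no net growth.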

As for `CCOC(=O)c1nc2ccc(C(F)(F)F)cc2nc1Nc1ccc(F)cc1`, the TGI with LOX IMVI melanoma, with NCI-H23 lung, in the assay with OVCAR-8 ovarian, in the assay on SF-295 CNS, with OVCAR-5 ovarian and in the assay with IGROV1 ovarian was more than 100 µM in each case. The TGI with SF-539 CNS is more than 100 µM; in the assay on SW-620 colon it was more than 100 µM; with RXF 393 renal, more than 100 µM; in the assay with HL-60(TB) leukemia, more than 100 µM; in the assay on SNB-75 CNS, 84.3 µM; in the assay with OVCAR-4 ovarian, more than 100 µM. Moreover, the TGI in the assay with HS 578T breast was 73.8 µM; in the assay on M14 melanoma, more than 100 µM.
For the compound `C[C@@H]1O[C@]2(O)[C@@H]3CCCN3S(=O)(=O)CCN2C1=O`, the TGI in the assay with CCRF-CEM leukemia, with U251 CNS, with LOX IMVI melanoma, in the assay on NCI-H23 lung, in the assay on OVCAR-8 ovarian and in the assay with NCI-H226 lung was more than 100 µM throughout. In addition, the TGI in the assay with SF-295 CNS, in the assay on OVCAR-5 ovarian, with SR leukemia, with IGROV1 ovarian, with SF-539 CNS and with SW-620 colon was more than 100 µM each time. The TGI in the assay with RXF 393 renal, in the assay on HCC-2998 colon, with HL-60(TB) leukemia, with SNB-75 CNS, with OVCAR-4 ovarian and in the assay with M14 melanoma was more than 100 µM in each case.
For `O=C(Cc1ccc([N+](=O)[O-])c([N+](=O)[O-])c1CC(=O)C(=O)Nc1cc(Cl)ccc1Cl)C(=O)Nc1cc(Cl)ccc1Cl`, the TGI with CCRF-CEM leukemia was more than 100 µM; in the assay on U251 CNS it was 70.1 µM; in the assay on LOX IMVI melanoma, 65.9 µM; with NCI-H23 lung, more than 100 µM; with OVCAR-8 ovarian it was more than 100 µM; in the assay with NCI-H226 lung, more than 100 µM. Besides, the TGI with SF-295 CNS, with OVCAR-5 ovarian, in the assay on SR leukemia, in the assay with IGROV1 ovarian, with SF-539 CNS and in the assay on SW-620 colon was more than 100 µM in each case. Further, the TGI was 94.7 µM in the assay with RXF 393 renal; more than 100 µM in the assay with HCC-2998 colon; more than 100 µM in the assay on HL-60(TB) leukemia; more than 100 µM in the assay with SNB-75 CNS; more than 100 µM in the assay on OVCAR-4 ovarian; more than 100 µM with M14 melanoma.
`COc1cc(OC)c2c(=O)c3c([N+](=O)[O-])cccc3n(C)c2c1`: the TGI in the assay with CCRF-CEM leukemia, with U251 CNS, in the assay with LOX IMVI melanoma, with NCI-H23 lung, in the assay with OVCAR-8 ovarian and in the assay with NCI-H226 lung was more than 100 µM in each case. Moreover, the TGI in the assay on SF-295 CNS, in the assay with OVCAR-5 ovarian, in the assay with SR leukemia, with IGROV1 ovarian, in the assay with SF-539 CNS and with SW-620 colon was more than 100 µM throughout. For the same compound, the TGI with RXF 393 renal, in the assay with HCC-2998 colon, in the assay with HL-60(TB) leukemia, with SNB-75 CNS, in the assay on OVCAR-4 ovarian and in the assay on M14 melanoma was more than 100 µM each time.
`CCOC(=O)CCC(NC(=O)c1ccc(N=Cc2nc3ccccc3nc2-c2ccccc2)cc1)C(=O)OCC` (stereo not given): the TGI in the assay with CCRF-CEM leukemia, with U251 CNS, in the assay with LOX IMVI melanoma, with NCI-H23 lung, in the assay on OVCAR-8 ovarian and in the assay on NCI-H226 lung was more than 100 µM in each case. Further, the TGI with SF-295 CNS, in the assay on OVCAR-5 ovarian, with SR leukemia, in the assay with IGROV1 ovarian, in the assay on SF-539 CNS and in the assay with SW-620 colon was more than 100 µM each time. Also, the TGI with RXF 393 renal, in the assay on HCC-2998 colon, in the assay on HL-60(TB) leukemia, in the assay on SNB-75 CNS, in the assay with OVCAR-4 ovarian and in the assay with M14 melanoma was more than 100 µM each time.
As for `CCOC(=O)c1nc2ccccc2nc1Oc1ccc(C#N)cc1`, the TGI in the assay with CCRF-CEM leukemia, in the assay on U251 CNS, in the assay with LOX IMVI melanoma, with OVCAR-8 ovarian, with NCI-H226 lung and with SF-295 CNS was more than 100 µM throughout. Besides, the TGI in the assay on OVCAR-5 ovarian, in the assay with IGROV1 ovarian, in the assay with SF-539 CNS, in the assay on SW-620 colon, in the assay with RXF 393 renal and with HL-60(TB) leukemia was more than 100 µM throughout. In addition, the TGI in the assay on OVCAR-4 ovarian, in the assay with HS 578T breast and in the assay on M14 melanoma was more than 100 µM in each case.
As for `C[C@@H]1OC2(O)[C@H]3CCCN3S(=O)(=O)CCN2C1=O` (stereo not given in full), the TGI in the assay with CCRF-CEM leukemia, with U251 CNS, with LOX IMVI melanoma, with NCI-H23 lung, in the assay with OVCAR-8 ovarian and in the assay on NCI-H226 lung was more than 100 µM throughout. For the same compound, the TGI in the assay with SF-295 CNS, in the assay on OVCAR-5 ovarian, with SR leukemia, with IGROV1 ovarian, in the assay on SF-539 CNS and with SW-620 colon was more than 100 µM in each case. Also, the TGI in the assay with RXF 393 renal, in the assay on HCC-2998 colon, in the assay on HL-60(TB) leukemia, in the assay on SNB-75 CNS, in the assay with OVCAR-4 ovarian and in the assay on M14 melanoma was more than 100 µM each time.
Take `O=C1NC(=S)NC(=O)C1=Cc1ccc(-c2ccccc2)cc1`: the TGI in the assay with CCRF-CEM leukemia, with U251 CNS, in the assay on LOX IMVI melanoma, in the assay with NCI-H23 lung, in the assay on OVCAR-8 ovarian and in the assay with NCI-H226 lung was more than 100 µM each time. The TGI in the assay on SF-295 CNS, in the assay with OVCAR-5 ovarian, in the assay on IGROV1 ovarian, in the assay with SF-539 CNS, with SW-620 colon and with RXF 393 renal was more than 100 µM throughout. Further, the TGI in the assay with HCC-2998 colon, in the assay on OVCAR-4 ovarian, in the assay on HS 578T breast and in the assay with M14 melanoma was more than 100 µM in each case.
